Experimental data reported in article PMC11062899, “De novo development of small cyclic peptides that are orally bioavailable” (Nature Chemical Biology, 2023).

Molecular target: human α-thrombin (Homo sapiens, UniProt P00734)
Test: Sub-library screen for active and permeable cyclic peptides (PAMPA plus thrombin inhibition)
Assay type: biochemical
Details: crude, slopes normalized to DMSO; for Residual thrombin activity: Top sample: PAMPA acceptor well after 14 h, 5 μM donor; for Residual thrombin activity: Equilibrated sample: donor sample diluted to theoretical equilibrium (1 μM in assay)
Protocol: Linear dithiol peptides were synthesized in fritted 5-ml polypropylene syringes on a MultiPep RSi parallel peptide synthesizer (Intavis) by standard Fmoc-based solid-phase peptide synthesis on cysteamine 2-chlorotrityl resin (Sigma-Aldrich, 8.56000, 1.63 mmol g^−1 loading, 25 μmol scale) as described above with small changes. Amino acids (65 μmol, 2.6 eq.) were activated with HATU (63 μmol, 2.5 eq.) and NMM (145 μmol, 5.8 eq.) in 280 μl of DMF and 5 μl of NMP and let to react with the resin (25 μmol, 1 eq.) for 45 min. Couplings were performed twice for each amino acid. Resin was washed once with 800 μl of DMF, and unreacted amines were capped with 5% acetic anhydride and 6% 2,6-lutidine in 400 μl of DMF for 5 min. The resin was washed six times with 600 μl of DMF, and Fmoc protecting groups were removed by incubating the resin twice with 450 μl of a 20% piperidine solution in DMF for 5 min. The resin was washed six times with 600 μl of DMF before proceeding to the next coupling cycle. After completing the last coupling cycle, the resin was washed six times with […] of DCM. Peptide cleavage and ether precipitation were carried out as described above. After quantification with Ellman’s reagent, 1 μmol of each peptide was transferred in seven replicates to new Nunc 96-well DeepWell polypropylene plates and lyophilized. Peptides were cyclized as described above to afford 20 mM cyclic peptide stock solutions in DMSO containing 160 mM HEPES sodium salt. The amine on cyclic peptides was acylated with 5-chlorothiophene-2-carboxylic acid as follows. A 160 mM solution in 5-chlorothiophene-2-carboxylic acid was prepared in DMSO containing 160 mM HEPES sodium salt, and the acid was activated by mixing in equal volumes with a 160 mM HSTU solution in DMSO. Then, 10 μl of the activated carboxylic acid solutions and the cyclic peptide stocks were placed in Echo Qualified 384-well Low Dead Volume microplates (Labcyte), and 400 nl of cyclic peptide and 400 nl of HSTU-activated 5-chlorothiophene-2-carboxylic acid were transferred combinatorially to 384-well microplates (Greiner, 781076) using the Echo 650 acoustic liquid handler (Labcyte). Plates were centrifuged at 2,000 g for 2 min, and the reaction was allowed to proceed at room temperature for 8 h before addition of 39.2 μl of DMSO with a CERTUS FLEX liquid dispenser (Gyger). A volume of 25 μl of the resulting DMSO solutions was diluted with PBS buffer at pH 7.4 containing 5% DMSO in Nunc 96-well DeepWell polypropylene plates to afford 5 μM solutions of the acylated peptides.
The PAMPA plates were covered with a lid to avoid evaporation and incubated for 14 h at room temperature. Additionally, a diluted donor sample was prepared at the concentration representing theoretical maximum permeability (3 μM). Thereby, 30 μl of the donor sample before incubation was diluted with 20 μl of PBS buffer at pH 7.4 containing 5% DMSO. Volumes of 16 μl of each acceptor well and the diluted donor samples were transferred to a 384-well microplate (Greiner, 781076), and thrombin activity was measured as follows. Human α-thrombin (16 μl, 6 nM, Molecular Innovations) in assay buffer was dispensed into each well using a CERTUS FLEX liquid dispenser (Gyger), and plates were incubated at room temperature for 10 min. Then, 16 μl of a 150 μM fluorogenic thrombin substrate solution (Z-Gly-Gly-Arg-AMC, Bachem) in assay buffer containing 1% DMSO was added to each well, and thrombin inhibition was determined by measuring the fluorescent gain over time. Fluorescence intensity was measured on a Tecan Infinite M200 Pro microplate reader for 30 min at 25 °C with a fluorescent readout every 3 min (excitation: 360 nm, emission: 465 nm). Protease inhibition was calculated by comparing the enzymatic activity to a control without cyclic peptide.

Compound | Residual thrombin activity: Top sample | Residual thrombin activity: Equilibrated sample
N#Cc1ccc(C[C@@H]2NC(=O)[C@@H](NC(=O)c3ccc(Cl)s3)CSCCS(=O)(=O)CCSCCNC(=O)C[C@H]3CCCN3C2=O)cc1 [C1-X35-L2] | 95.6 | 96.6
N#Cc1ccc(C[C@@H]2NC(=O)[C@@H](NC(=O)c3ccc(Cl)s3)CSCc3cccc(c3)CSCCNC(=O)C[C@H]3CCCN3C2=O)cc1 [C1-X35-L5] | 102.4 | 97.2
N#Cc1ccc(C[C@@H]2NC(=O)[C@@H](NC(=O)c3ccc(Cl)s3)CSCc3ccccc3CSCCNC(=O)C[C@H]3CCCN3C2=O)cc1 [C1-X35-L6] | 90.5 | 92.5
N#Cc1ccc(C[C@@H]2NC(=O)[C@@H](NC(=O)c3ccc(Cl)s3)CSCC(=O)CSCCNC(=O)C[C@H]3CCCN3C2=O)cc1 [C1-X35-L7] | 96.3 | 100.4
O=C1C[C@H]2CCCN2C(=O)[C@H](Cc2ccc(C(F)(F)F)cc2)NC(=O)[C@@H](NC(=O)c2ccc(Cl)s2)CSCc2cccc(n2)CSCCN1 [C1-X36-L1] | 93.6 | 98.9
O=C1C[C@H]2CCCN2C(=O)[C@H](Cc2ccc(C(F)(F)F)cc2)NC(=O)[C@@H](NC(=O)c2ccc(Cl)s2)CSCc2ccc(cc2)CSCCN1 [C1-X36-L3] | 95.8 | 94.6
O=C1C[C@H]2CCCN2C(=O)[C@H](Cc2ccc(C(F)(F)F)cc2)NC(=O)[C@@H](NC(=O)c2ccc(Cl)s2)CSC/C=C/CSCCN1 [C1-X36-L4] | 96.8 | 92.7
Cc1cccc(C[C@@H]2NC(=O)[C@@H](NC(=O)c3ccc(Cl)s3)CSCc3cccc(c3)CSCCNC(=O)C[C@H]3CCCN3C2=O)c1 [C1-X37-L5] | 100.9 | 88.0
Cc1cccc(C[C@@H]2NC(=O)[C@@H](NC(=O)c3ccc(Cl)s3)CSCC(=O)CSCCNC(=O)C[C@H]3CCCN3C2=O)c1 [C1-X37-L7] | 94.3 | 97.7
O=C1C[C@H]2CCCN2C(=O)[C@H](Cc2ccccc2)NC(=O)[C@@H](NC(=O)c2ccc(Cl)s2)CCSCc2cccc(n2)CSCCN1 [C2-X5-L1] | 56.1 | 37.8
O=C1C[C@H]2CCCN2C(=O)[C@H](Cc2ccccc2)NC(=O)[C@@H](NC(=O)c2ccc(Cl)s2)CCSC/C=C/CSCCN1 [C2-X5-L4] | 61.9 | 33.0
O=C1C[C@H]2CCCN2C(=O)[C@@H](Cc2ccccc2)NC(=O)[C@@H](NC(=O)c2ccc(Cl)s2)CCSCc2cccc(n2)CSCCN1 [C2-X31-L1] | 93.0 | 90.7
O=C1C[C@H]2CCCN2C(=O)[C@@H](Cc2ccccc2)NC(=O)[C@@H](NC(=O)c2ccc(Cl)s2)CCSCc2ccc(cc2)CSCCN1 [C2-X31-L3] | 96.0 | 100.5

Second part, the compound after the results:

Residual thrombin activity: Top sample | Residual thrombin activity: Equilibrated sample | Compound
91.5 | 92.1 | N#Cc1ccc(C[C@@H]2NC(=O)[C@@H](NC(=O)c3ccc(Cl)s3)CSCc3cccc(n3)CSCCNC(=O)C[C@H]3CCCN3C2=O)cc1 [C1-X35-L1]
94.1 | 100.0 | N#Cc1ccc(C[C@@H]2NC(=O)[C@@H](NC(=O)c3ccc(Cl)s3)CSCc3ccc(cc3)CSCCNC(=O)C[C@H]3CCCN3C2=O)cc1 [C1-X35-L3]
93.4 | 96.9 | N#Cc1ccc(C[C@@H]2NC(=O)[C@@H](NC(=O)c3ccc(Cl)s3)CSC/C=C/CSCCNC(=O)C[C@H]3CCCN3C2=O)cc1 [C1-X35-L4]
99.0 | 102.5 | O=C1C[C@H]2CCCN2C(=O)[C@H](Cc2ccc(C(F)(F)F)cc2)NC(=O)[C@@H](NC(=O)c2ccc(Cl)s2)CSCCS(=O)(=O)CCSCCN1 [C1-X36-L2]
101.6 | 104.5 | O=C1C[C@H]2CCCN2C(=O)[C@H](Cc2ccc(C(F)(F)F)cc2)NC(=O)[C@@H](NC(=O)c2ccc(Cl)s2)CSCc2cccc(c2)CSCCN1 [C1-X36-L5]
91.2 | 94.8 | O=C1C[C@H]2CCCN2C(=O)[C@H](Cc2ccc(C(F)(F)F)cc2)NC(=O)[C@@H](NC(=O)c2ccc(Cl)s2)CSCc2ccccc2CSCCN1 [C1-X36-L6]
100.3 | 99.5 | O=C1CSCCNC(=O)C[C@H]2CCCN2C(=O)[C@H](Cc2ccc(C(F)(F)F)cc2)NC(=O)[C@@H](NC(=O)c2ccc(Cl)s2)CSC1 [C1-X36-L7]
86.5 | 84.1 | Cc1cccc(C[C@@H]2NC(=O)[C@@H](NC(=O)c3ccc(Cl)s3)CSCc3cccc(n3)CSCCNC(=O)C[C@H]3CCCN3C2=O)c1 [C1-X37-L1]
93.0 | 57.2 | Cc1cccc(C[C@@H]2NC(=O)[C@@H](NC(=O)c3ccc(Cl)s3)CSCCS(=O)(=O)CCSCCNC(=O)C[C@H]3CCCN3C2=O)c1 [C1-X37-L2]
95.4 | 90.2 | Cc1cccc(C[C@@H]2NC(=O)[C@@H](NC(=O)c3ccc(Cl)s3)CSCc3ccc(cc3)CSCCNC(=O)C[C@H]3CCCN3C2=O)c1 [C1-X37-L3]
87.8 | 60.4 | Cc1cccc(C[C@@H]2NC(=O)[C@@H](NC(=O)c3ccc(Cl)s3)CSC/C=C/CSCCNC(=O)C[C@H]3CCCN3C2=O)c1 [C1-X37-L4]
93.2 | 84.4 | Cc1cccc(C[C@@H]2NC(=O)[C@@H](NC(=O)c3ccc(Cl)s3)CSCc3ccccc3CSCCNC(=O)C[C@H]3CCCN3C2=O)c1 [C1-X37-L6]
89.4 | 25.8 | O=C1C[C@H]2CCCN2C(=O)[C@H](Cc2ccccc2)NC(=O)[C@@H](NC(=O)c2ccc(Cl)s2)CCSCCS(=O)(=O)CCSCCN1 [C2-X5-L2]
86.6 | 59.6 | O=C1C[C@H]2CCCN2C(=O)[C@H](Cc2ccccc2)NC(=O)[C@@H](NC(=O)c2ccc(Cl)s2)CCSCc2ccc(cc2)CSCCN1 [C2-X5-L3]
90.5 | 54.8 | O=C1C[C@H]2CCCN2C(=O)[C@H](Cc2ccccc2)NC(=O)[C@@H](NC(=O)c2ccc(Cl)s2)CCSCc2cccc(c2)CSCCN1 [C2-X5-L5]
87.4 | 76.1 | O=C1C[C@H]2CCCN2C(=O)[C@H](Cc2ccccc2)NC(=O)[C@@H](NC(=O)c2ccc(Cl)s2)CCSCc2ccccc2CSCCN1 [C2-X5-L6]
95.7 | 44.2 | O=C1CSCCNC(=O)C[C@H]2CCCN2C(=O)[C@H](Cc2ccccc2)NC(=O)[C@@H](NC(=O)c2ccc(Cl)s2)CCSC1 [C2-X5-L7]
98.7 | 98.6 | O=C1C[C@H]2CCCN2C(=O)[C@@H](Cc2ccccc2)NC(=O)[C@@H](NC(=O)c2ccc(Cl)s2)CCSCCS(=O)(=O)CCSCCN1 [C2-X31-L2]
